The values that follow are results of earlier work, collected in patent publication US12310930B2 (YS PHARMTECH, priority 2016, dated 2025).

Like-named read-outs stand apart in the source and are kept apart here.

Regarding `CNCC(O)c1ccc(O)c(O)c1` (single isomer, unassigned; (-)) [epinephrine, (−)-3,4-Dihydroxy-α-[(methylamino)methyl]benzyl alcohol], the “association constant (K)” value reads like this: (pH 3.5, aqueous solution) 488 M⁻¹; (pH 5.5, aqueous solution) 111 M⁻¹.
